Data reported in patent publication US20260198497A1, “A BENZENE RING-SUBSTITUTED PYRIMIDINECARBOXYLIC ACID COMPOUND, PREPARATION METHOD THEREFOR, HERBICIDAL COMPOSITION AND APPLICATION THEREOF” (QINGDAO KINGAGROOT CHEMICAL COMPOUND CO., LTD., priority 2023, published 2026).

system: Veronica; test: Post-emergence test on weeds; format: in vivo; set-up: key: 0 = no effect, 9 = completely dead (levels by growth control rate); conditions: 30 g a.i./ha, 3 weeks after application
Excerpt: The criteria for activity levels of plant damage (i.e., growth control rate) are as follows: • Level 9: completely dead; • Level 8: growth control rate is greater than or equal to 90% and less than 100%; • Level 7: growth control rate is greater than or equal to 80% and less than 90%; • Level 6: growth control rate is greater than or equal to 70% and less than 80%; • Level 5: growth control rate is greater than or equal to 50% and less than 70%; • Level 4: growth control rate is greater than or equal to 30% and less than 50%; • Level 3: growth control rate is greater than or equal to 20% and less than 30%; • Level 2: growth control rate is greater than or equal to 10% and less than 20%; • Level 1: growth control rate is less than 10%; • Level 0: no effect.
The above growth control rates are fresh weight control rates.
Monocotyledonous and dicotyledonous weed seeds (Descurainia sophia, Capsella bursa-pastoris, Abutilon theophrasti, Galium spurium, Stellaria media, Lithospermum arvense, Rorippa indica, Alopecurus aequalis, Alopecurus japonicus, Eleusine indica, Beckmannia syzigachne, Sclerochloa dura, Erigeron canadensis, Phleum paniculatum, Veronica, Bromus japonicus, Aegilops tauschii, Phalaris arundinacea, Amaranthus retroflexus, Chenopodium, Commelina communis, Cichorium endivia, Convolvulus arvensis, Cirsium arvense, Solanum nigrum, Acalypha australis, Digitaria sanguinalis, Echinochloa crusgalli, Setaria viridis, Setaria pumila, Leptochloa chinensis, Monochoria vaginalis, Sagittaria trifolia, Schoenoplectiella juncoides, Cyperus rotundus, Cyperus iria, Cyperus difformis, Fimbristylis, Portulaca oleracea, Xanthium sibiricum, Ipomoea nil, Eschenbachia japonica, etc.) and major crop seeds (wheat, maize, paddy rice, soybean, cotton, oilseed rape, millet, sorghum, potato, sesame, castor plant, Chinese cabbage, radish, etc.) were placed in plastic pots filled with soil and then covered with 0.5-2 cm of soil to allow them to grow in a favorable greenhouse environment. Two weeks after sowing, the test plants were treated at the stage of 2-3 leaves. The test compounds of the present invention were individually dissolved with acetone, then added with Tween® 80, with 1.5 L/ha of methyl oleate emulsifiable concentrate as a synergist, diluted into solution of a certain concentration using a certain amount of water, and sprayed to plants using a spray tower. After drug application, the experimental results on weeds were collected after 3 weeks of cultivation in a greenhouse. The compounds were applied at 120, 60, 30, and 15 g a.i./ha in triplicate, and the results were averaged.

| Structure (SMILES) | activity level of plant damage (growth control rate), Veronica |
| --- | --- |
| COc1c(N)nc(-c2ccc(C(F)(F)F)c(OC)c2F)nc1C(=O)O [Compound 1] | 9 |
| CCOCCOC(=O)c1nc(-c2ccc(C(F)(F)F)c(OC)c2F)nc(N)c1OC [Compound 21] | 9 |
| CCCOCCOC(=O)c1nc(-c2ccc(C(F)(F)F)c(OC)c2F)nc(N)c1OC [Compound 22] | 9 |
| COCCOCCOC(=O)c1nc(-c2ccc(C(F)(F)F)c(OC)c2F)nc(N)c1OC [Compound 23] | 9 |
| CCCOC(=O)c1nc(-c2ccc(C(F)(F)F)c(OC)c2F)nc(N)c1OC [Compound 25] | 9 |
| COc1c(N)nc(-c2ccc(C(F)(F)F)c(OC)c2F)nc1C(=O)OC(C)C [Compound 26] | 9 |
| C=CCOC(=O)c1nc(-c2ccc(C(F)(F)F)c(OC)c2F)nc(N)c1OC [Compound 52] | 9 |
| C#CCOC(=O)c1nc(-c2ccc(C(F)(F)F)c(OC)c2F)nc(N)c1OC [Compound 57] | 9 |
| COc1c(N)nc(-c2ccc(C(F)(F)F)c(OC)c2F)nc1C(=O)OCCF [Compound 58] | 9 |
| COc1c(N)nc(-c2ccc(C(F)(F)F)c(OC)c2F)nc1C(=O)OCCCl [Compound 59] | 9 |
| COc1c(N)nc(-c2ccc(C(F)(F)F)c(OC)c2F)nc1C(=O)OCCBr [Compound 60] | 9 |
| COc1c(N)nc(-c2ccc(C(F)(F)F)c(OC)c2F)nc1C(=O)OCC(F)F [Compound 61] | 9 |
| COc1c(N)nc(-c2ccc(C(F)(F)F)c(OC)c2F)nc1C(=O)OCCCF [Compound 63] | 9 |
| COc1c(N)nc(-c2ccc(C(F)(F)F)c(OC)c2F)nc1C(=O)OCCC(F)(F)F [Compound 64] | 9 |
| COCOC(=O)c1nc(-c2ccc(C(F)(F)F)c(OC)c2F)nc(N)c1OC [Compound 72] | 9 |
| COc1c(N)nc(-c2ccc(C(F)(F)F)c(OC)c2F)nc1C(=O)OCCO [Compound 73] | 9 |
| COc1c(N)nc(-c2ccc(C(F)(F)F)c(OC)c2F)nc1C(=O)OCC(OC)OC [Compound 76] | 9 |
| CCOC(=O)COC(=O)c1nc(-c2ccc(C(F)(F)F)c(OC)c2F)nc(N)c1OC [Compound 81] | 9 |
| COC(=O)C(C)OC(=O)c1nc(-c2ccc(C(F)(F)F)c(OC)c2F)nc(N)c1OC (centres unmarked) [Compound 82] | 9 |
| CCOC(=O)OC(C)OC(=O)c1nc(-c2ccc(C(F)(F)F)c(OC)c2F)nc(N)c1OC (centres unmarked) [Compound 93] | 9 |
| COc1c(N)nc(-c2ccc(C(F)(F)F)c(OC)c2F)nc1C(=O)OCCSC [Compound 100] | 9 |
| COc1c(N)nc(-c2ccc(C(F)(F)F)c(OC)c2F)nc1C(=O)OCC#N [Compound 103] | 9 |
| COc1c(N)nc(-c2ccc(C(F)(F)F)c(OC)c2F)nc1C(=O)OCC1CC1 [Compound 117] | 9 |
| COc1c(N)nc(-c2ccc(C(F)(F)F)c(OC)c2F)nc1C(=O)OC1CCCC1 [Compound 119] | 9 |
| COc1c(N)nc(-c2ccc(C(F)(F)F)c(OC)c2F)nc1C(=O)OCC1CCCO1 (centres unmarked) [Compound 121] | 9 |

| Structure (SMILES) | activity level of plant damage (growth control rate), Veronica |
| --- | --- |
| COc1c(N)nc(-c2ccc(C(F)(F)F)c(OC)c2F)nc1C(=O)Oc1ccccc1 [Compound 129] | 9 |
| COc1c(N)nc(-c2ccc(C(F)(F)F)c(OC)c2F)nc1C(=O)OCc1ccccc1 [Compound 130] | 9 |
| COc1c(N)nc(-c2ccc(C(F)(F)F)c(OC)c2F)nc1C(=O)OCc1ccccc1F [Compound 133] | 9 |
| COc1cc(-c2nc(N)c(OC)c(C(=O)OCc3ccccn3)n2)ccc1C(F)(F)F [Compound 150] | 9 |
| COc1cc(-c2nc(N)c(OC)c(C(=O)OCc3cccnc3)n2)ccc1C(F)(F)F [Compound 151] | 9 |
| COc1cc(-c2nc(N)c(OC)c(C(=O)OCc3ccncc3)n2)ccc1C(F)(F)F [Compound 152] | 9 |
| COc1cc(-c2nc(N)c(OC)c(C(=O)SC)n2)ccc1C(F)(F)F [Compound 155] | 9 |
| CCSC(=O)c1nc(-c2ccc(C(F)(F)F)c(OC)c2)nc(N)c1OC [Compound 156] | 9 |
| COCCSC(=O)c1nc(-c2ccc(C(F)(F)F)c(OC)c2F)nc(N)c1OC [Compound 190] | 9 |
| COc1c(N)nc(-c2ccc(C(F)(F)F)c(OC)c2F)nc1C(=O)OCC(C)F (centres unmarked) [Compound 191] | 9 |
| COc1c(N)nc(-c2ccc(C(F)(F)F)c(OC)c2F)nc1C(=O)ON=C(C)C(C)(C)C [Compound 192] | 9 |
| COc1c(N)nc(-c2ccc(C(F)(F)F)c(OC)c2F)nc1C(=O)OCc1ccn(C)n1 [Compound 193] | 9 |
| COc1c(N)nc(-c2ccc(C(F)(F)F)c(OC)c2F)nc1C(=O)[O-].[K+] [Compound 199] | 9 |
| COc1c(N)nc(-c2ccc(C(F)(F)F)c(OC)c2F)nc1C(=O)[O-].[Na+] [Compound 200] | 9 |
| COC(=O)c1nc(-c2ccc(Br)c(OC)c2F)nc(N)c1OC [Compound 201] | 9 |
| CCOC(=O)c1nc(-c2ccc(Br)c(OC)c2F)nc(N)c1OC [Compound 202] | 9 |
| CCCOC(=O)c1nc(-c2ccc(Br)c(OC)c2F)nc(N)c1OC [Compound 203] | 9 |
| COc1c(N)nc(-c2ccc(Br)c(OC)c2F)nc1C(=O)OC(C)C [Compound 204] | 9 |
| COc1c(N)nc(-c2ccc(Br)c(OC)c2F)nc1C(=O)OCC(F)F [Compound 205] | 9 |
| COc1c(N)nc(-c2ccc(Br)c(OC)c2F)nc1C(=O)OCC#N [Compound 209] | 9 |
| COc1c(N)nc(-c2ccc(Br)c(OC)c2F)nc1C(=O)ON=C(C)C [Compound 210] | 9 |
| COCCOC(=O)c1nc(-c2ccc(Br)c(OC)c2F)nc(N)c1OC [Compound 212] | 9 |
| COc1c(N)nc(-c2ccc(Br)c(OC)c2F)nc1C(=O)OCCSC [Compound 214] | 9 |
| COc1c(N)nc(-c2ccc(Br)c(OC)c2F)nc1C(=O)OCC1CCCO1 (centres unmarked) [Compound 218] | 9 |
| COc1c(N)nc(-c2ccc(Br)c(OC)c2F)nc1C(=O)OCc1ccccc1 [Compound 219] | 9 |
